Data as given in patent publication US20250161314A1, “METHOD FOR TREATMENT OR IMPROVEMENT OF NON-ALCOHOLIC FATTY LIVER DISEASE AND OBESITY BY LUMICHROME” (CATHAY GENERAL HOSPITAL, priority 2023, published 2025).
“Also recorded” adds a separate entry of the source.

Tests used:
Type in all cases: in vivo
[1] = tested on: C57BL/6 male mice; assay: Epididymal fat weight, liver weight and lipid amount in the liver; details: HFD mice
Description: (§1) The serum was further analyzed by a dry chemistry auto analyzer (DRI-CHEM NX500i, Fujifilm, Tokyo, Japan) to measure the following blood biochemical values: AST, ALT and LDH. • (4) The mice in all groups were eventually sacrificed by excessive anesthesia, and both the epididymal fat and liver thereof were collected for a weight measurement, wherein the liver was divided into three parts, and a first part thereof, the first liver tissue, was further tested to determine the lipid amount in the liver by a lipid extraction kit (Chloroform-Free) (ab211044, Abeam, Cambridge, UK). • (5) A second part of the liver, the second liver tissue, was soaked in 4% formaldehyde (10% formalin) for frozen section, and the obtained liver tissue section was further subjected to (1) H/E staining and (2) Oil red O (ORO) staining for lipids (Bio-check laboratories, Taipei, Taiwan). • (6) A third part of the liver, the third liver tissue, was subjected to mRNA extraction, and the extracted mRNA was further subjected to quantitative polymerase chain reaction (qPCR). Further, (1) by qPCR with the primers of SEQ ID NO:1 and SEQ ID NO:2, the relative mRNA expression level of Acta2, which relates to liver fibrosis, in the liver in all groups was determined. (2) by qPCR with the primers of SEQ ID NO:3 and SEQ ID NO:4, the relative mRNA expression level of CD36, which affects fat uptake by liver cells, in all groups was determined; and (3) by qPCR with the primers of SEQ ID NO:5 and SEQ ID NO:6, the relative mRNA expression level of FABP1, which affects fat uptake by liver cells, in all groups was determined.
(§2) The present invention used a statistic and graphing software (prism ver. 6) for data analysis. The data of the numerical mean±standard deviation (SD) of the independent samples in all six groups were firstly obtained, and further subjected to One-way ANOVA for statistics. The post-hoc test was Tukey multiple comparison test. The differences between the groups were analyzed separately, and a p value less than 0.05 indicated a statistically significant difference.

[2] = tested on: C57BL/6 male mice; assay: Weekly weight measurement (weight gain) of high-fat diet mice; details: HFD mice, 12 weeks
[3] = tested on: C57BL/6 male mice; assay: Serum blood biochemical values AST, ALT and LDH by dry chemistry auto analyzer; details: HFD mice
Description: as §1, §2

[4] = tested on: Acta2; assay: qPCR relative mRNA expression level of Acta2 in the liver; details: HFD mice
Description: as §1, with “(2) by qPCR with the primers of SEQ ID NO:3 and SEQ ID NO:4, the relative mRNA expression level of CD36, which affects fat uptake by liver cells, in all groups was determined; and (3) by qPCR with the primers of SEQ ID NO:5 and SEQ ID NO:6, the relative mRNA expression level of FABP1, which affects fat uptake by liver cells, in all groups was determined.” left out

[5] = tested on: C57BL/6 male mice; assay: Body size and liver appearance of mice after high-fat diet and lumichrome; details: HFD mice; for liver appearance (fatty liver): from 21th week of 32 weeks
Description: as §1

[6] = tested on: CD36; assay: qPCR relative mRNA expression level of CD36 in the liver; details: HFD mice
Description: as §1, with “(2) by qPCR with the primers of SEQ ID NO:3 and SEQ ID NO:4, the relative mRNA expression level of CD36, which affects fat uptake by liver cells, in all groups was determined; and (3) by qPCR with the primers of SEQ ID NO:5 and SEQ ID NO:6, the relative mRNA expression level of FABP1, which affects fat uptake by liver cells, in all groups was determined.” left out

[7] = tested on: FABP1; assay: qPCR relative mRNA expression level of FABP1 in the liver; details: HFD mice
Description: as §1, with “(2) by qPCR with the primers of SEQ ID NO:3 and SEQ ID NO:4, the relative mRNA expression level of CD36, which affects fat uptake by liver cells, in all groups was determined; and (3) by qPCR with the primers of SEQ ID NO:5 and SEQ ID NO:6, the relative mRNA expression level of FABP1, which affects fat uptake by liver cells, in all groups was determined.” left out

[8] = tested on: C57BL/6 male mice; assay: Liver sections, H/E staining and Oil red O staining for lipid droplets; details: HFD mice, H/E and ORO staining
Description: as §1, with “(2) by qPCR with the primers of SEQ ID NO:3 and SEQ ID NO:4, the relative mRNA expression level of CD36, which affects fat uptake by liver cells, in all groups was determined; and (3) by qPCR with the primers of SEQ ID NO:5 and SEQ ID NO:6, the relative mRNA expression level of FABP1, which affects fat uptake by liver cells, in all groups was determined.” left out

[9] = tested on: C57BL/6 male mice; assay: Grip strength test by grip strength meter; details: lumichrome 0.8 or 4 mg/kg/day oral gavage
[10] = lumichrome high dose 4 mg/kg/day oral gavage
[11] = lumichrome low dose 0.8 mg/kg/day oral gavage
[12] = lumichrome high dose 4 mg/kg/day oral gavage, 4 mg/kg/day

Cc1cc2nc3[nH]c(=O)[nH]c(=O)c3nc2cc1C [lumichrome]
epididymal fat weight [1, 10]: lower than those of the High-fat diet group | lipid amount in the liver [1, 10]: lower than those of the High-fat diet group | liver weight [1, 10]: lower than those of the High-fat diet group | epididymal fat weight [1, 11]: lower than those of the High-fat diet group | liver weight [1, 11]: lower than those of the High-fat diet group | weight gain [2, 12]: ameliorate weight gain increase of mice resulting from the high-fat diet; also recorded: no longer increased greatly at and after the fourth week after providing lumichrome | weight gain [2, 11]: ameliorate weight gain increase of mice resulting from the high-fat diet | ALT in the serum [3, 10]: lower than those of the High-fat diet group | AST in the serum [3, 10]: lower than those of the High-fat diet group | LDH in the serum [3, 10]: lower than those of the High-fat diet group | ALT in the serum [3, 11]: lower than those of the High-fat diet group | AST in the serum [3, 11]: lower than those of the High-fat diet group | LDH in the serum [3, 11]: lower than those of the High-fat diet group | relative mRNA expression level of Acta2 in the liver [4, 10]: less mRNA expression of Acta2 than that of the High-fat diet group | relative mRNA expression level of Acta2 in the liver [4, 11]: less mRNA expression of Acta2 than that of the High-fat diet group | body size of mice [5, 10]: more obvious efficacy to ameliorate the body size increase of mice | liver appearance (fatty liver) [5, 10]: improve the appearance of a fatty liver to regain a blood red color | body size of mice [5, 11]: inhibit the increase of the body size of mice | liver appearance (fatty liver) [5, 11]: improve the appearance of a fatty liver and regain a red color | relative mRNA expression level of CD36 in the liver [6, 10]: less mRNA expression of CD36 and FABP1 than that of the High-fat diet group | relative mRNA expression level of CD36 in the liver [6, 11]: less mRNA expression of CD36 and FABP1 than that of the High-fat diet group | relative mRNA expression level of FABP1 in the liver [7, 10]: less mRNA expression of CD36 and FABP1 than that of the High-fat diet group | relative mRNA expression level of FABP1 in the liver [7, 11]: less mRNA expression of CD36 and FABP1 than that of the High-fat diet group | lipid droplets size and accumulation in the liver [8, 12]: smaller lipid droplets and less lipid droplets accumulation than those of the High-fat diet group; also recorded: significantly better than that in the HFD-lumichrome in low dose group | lipid droplets size and accumulation in the liver [8, 11]: smaller lipid droplets and less lipid droplets accumulation than those of the High-fat diet group | grip strength (muscular endurance) ([9]; HFD mice): did not cause a decrease in muscular endurance of mice | grip strength (muscular endurance) ([9]; control diet mice): did not cause a decrease in muscular endurance of mice
